Results reported in patent publication US8497380B2, “Substituted acetophenones useful as PDE4 inhibitors” (Leo Pharma A/S, priority 2006, dated 2013).

The molecules below were run on Human peripheral blood mononuclear cells (PBMC) (assay: TNFalfa-Release). Conditions: inhibition of TNF-a secretion, PBMC pre-incubated 30 minutes, stimulated 18 hours with lipopolysaccharide.
Assay type: cell-based
Description: Human peripheral blood mononuclear cells (PBMC) are Isolated from buffy coats. The blood is mixed with saline at a ratio of 1:1, and the PBMC is isolated by the use of Lymphoprep Tubes™ (Nycomed, Norway). The PBMC is suspended in RPMI1640 with 2% foetal calf serum (FCS), pen/strep and 2 mM L-glutamine at a concentration of 5×105 c/ml. The cells are pre-incubated for 30 minutes with the test compounds in 96 well tissue culture plates and stimulated for 18 hours with lipopolysaccharide 1 mg/ml (Sigma). The level of TNF-a is measured in the culture supernatant by enzyme immuno assays using primary and secondary biotinylated antibodies from R&D systems. Results are expressed as pIC50 values calculated from inhibition curves using as positive controls the secretion in LPS stimulated wells and as negative controls the secretion in unstimulated cells.

SMILES	IC50 [nM]
COc1ccc(C(=O)Cc2c(Cl)cncc2Cl)c(OCCOc2ccc(Cl)cc2)c1OC [Compound 153, 1-{2-[2-(4-Chloro-phenoxy)-ethoxy]-3,4-dimethoxy-phenyl}-2-(3,5-dichloro-pyridin-4-yl)-ethanone]	< 1000
COc1ccc(C(=O)Cc2c(Cl)cncc2Cl)c(OCCO)c1OC [Compound 155, 2-(3,5-Dichloro-pyridin-4-yl)-1-[2-(2-hydroxy-ethoxy)-3,4-dimethoxy-phenyl]-ethanone]	< 1000
COc1ccc(C(=O)Cc2c(Cl)cncc2Cl)c(OCC(=O)c2ccc3ccccc3c2)c1OC [Compound 157, 2-(3,5-Dichloro-pyridin-4-yl)-1-[3,4-dimethoxy-2-(2-naphthalen-2-yl-2-oxo-ethoxy)-phenyl]-ethanone]	< 1000
COc1ccc(C(=O)Cc2c(Cl)cncc2Cl)c(OCc2ccccc2F)c1OC [Compound 161, 2-(3,5-Dichloro-pyridin-4-yl)-1-[2-(2-fluoro-benzyloxy)-3,4-dimethoxy-phenyl]-ethanone]	< 1000
COc1ccc(C(=O)Cc2c(Cl)cncc2Cl)c(OCc2cccc(C(F)(F)F)c2)c1OC [Compound 162, 2-(3,5-Dichloro-pyridin-4-yl)-1-[3,4-dimethoxy-2-(3-trifluoromethyl-benzyloxy)-phenyl]-ethanone]	< 1000
COc1ccc(C(=O)Cc2c(Cl)cncc2Cl)c(OCc2cccc(OC(F)(F)F)c2)c1OC [Compound 163, 2-(3,5-Dichloro-pyridin-4-yl)-1-[3,4-dimethoxy-2-(3-trifluoromethoxy-benzyloxy)-phenyl]-ethanone]	< 1000
COc1ccc(C(=O)Cc2c(Cl)cncc2Cl)c(OCc2ccccc2OC(F)F)c1OC [Compound 168, 2-(3,5-Dichloro-pyridin-4-yl)-1-[2-(2-difluoromethoxy-benzyloxy)-3,4-dimethoxy-phenyl]-ethanone]	< 1000
COc1ccc(C(=O)Cc2c(Cl)cncc2Cl)c(OCc2c(F)cccc2C(F)(F)F)c1OC [Compound 170, 2-(3,5-Dichloro-pyridin-4-yl)-1-[2-(2-fluoro-6-trifluoromethyl-benzyloxy)-3,4-dimethoxy-phenyl]-ethanone]	< 1000
COc1ccc(C(=O)Cc2c(Cl)cncc2Cl)c(OCc2ccc(C)c(F)c2F)c1OC [Compound 171, 2-(3,5-Dichloro-pyridin-4-yl)-1-(2-(2,3-difluoro-4-methyl-benzyloxy)-3,4-dimethoxy-phenyl)-ethanone]	< 1000
COc1ccc(C(=O)Cc2c(Cl)cncc2Cl)c(OCc2ccccc2Cl)c1OC [Compound 176, 1-[2-(2-Chloro-benzyloxy)-3,4-dimethoxy-phenyl]-2-(3,5-dichloro-pyridin-4-yl)-ethanone]	< 1000
COc1cccc(COc2c(C(=O)Cc3c(Cl)cncc3Cl)ccc(OC)c2OC)c1 [Compound 177, 2-(3,5-Dichloro-pyridin-4-yl)-1-[3,4-dimethoxy-2-(3-methoxy-benzyloxy)-phenyl]-ethanone]	< 1000
CCOC(=O)CCCCOc1c(C(=O)Cc2c(Cl)cncc2Cl)ccc(OC)c1OC [Compound 182, 5-{6-[2-(3,5-Dichloro-pyridin-4-yl)-acetyl]-2,3-dimethoxy-phenoxy}-pentanoic acid ethyl ester]	< 1000
COc1ccc(C(=O)Cc2c(Cl)cncc2Cl)c(OCCCOCc2ccccc2)c1OC [Compound 183, 1-[2-(3-Benzyloxy-propoxy)-3,4-dimethoxy-phenyl]-2-(3,5-dichloro-pyridin-4-yl)-ethanone]	< 1000
COc1ccc(C(=O)Cc2c(Cl)cncc2Cl)c(OCC(N)=O)c1OC [Compound 184, 2-{6-[2-(3,5-Dichloro-pyridin-4-yl)-acetyl]-2,3-dimethoxy-phenoxy}-acetamide]	< 1000
COc1ccc(C(=O)Cc2c(Cl)cncc2Cl)c(OCCN2C(=O)c3ccccc3C2=O)c1OC [Compound 185, 2-(2-{6-[2-(3,5-Dichloro-pyridin-4-yl)-acetyl]-2,3-dimethoxy-phenoxy}-ethyl)-isoindole-1,3-dione]	< 1000
COc1ccc(C(=O)Cc2c(Cl)cncc2Cl)c(OCCCN2C(=O)c3ccccc3C2=O)c1OC [Compound 186, 2-(3-{6-[2-(3,5-Dichloro-pyridin-4-yl)-acetyl]-2,3-dimethoxy-phenoxy}-propyl)-isoindole-1,3-dione]	< 1000
CCOc1c(OC)ccc(C(=O)Cc2c(Cl)cncc2Cl)c1OC [Compound 188, 2-(3,5-Dichloro-pyridin-4-yl)-1-(3-ethoxy-2,4-dimethoxy-phenyl)-ethanone]	< 1000
COc1ccc(C(=O)Cc2c(Cl)cncc2Cl)c(OC)c1OCC1CC1 [Compound 189, 1-(3-Cyclopropylmethoxy-2,4-dimethoxy-phenyl)-2-(3,5-dichloro-pyridin-4-yl)-ethanone]	< 1000
C=CCCOc1c(OC)ccc(C(=O)Cc2c(Cl)cncc2Cl)c1OCC=C [Compound 190, 1-(2-Allyloxy-3-but-3-enyloxy-4-methoxy-phenyl)-2-(3,5-dichloro-pyridin-4-yl)-ethanone]	< 1000
C=CCOc1c(OC)ccc(C(=O)Cc2c(Cl)cncc2Cl)c1OC [Compound 193, 1-(3-Allyloxy-2,4-dimethoxy-phenyl)-2-(3,5-dichloro-pyridin-4-yl)-ethanone]	< 1000
COc1ccc(C(=O)Cc2c(Cl)cncc2Cl)c(OCC(=O)N2CCCC2)c1OC [Compound 202, 2-(3,5-Dichloro-pyridin-4-yl)-1-[3,4-dimethoxy-2-(2-oxo-2-pyrrolidin-1-yl-ethoxy)-phenyl]-ethanone]	< 1000
COc1ccc(C(=O)Cc2c(Cl)cncc2Cl)c(OCC(=O)NCc2ccccc2)c1OC [Compound 203, N-Benzyl-2-{6-[2-(3,5-dichloro-pyridin-4-yl)-acetyl]-2,3-dimethoxy-phenoxy}-acetamide]	< 1000
COc1ccc(C(=O)Cc2c(Cl)cncc2Cl)c(OCC(=O)N2CCOCC2)c1OC [Compound 204, 2-(3,5-Dichloro-pyridin-4-yl)-1-[3,4-dimethoxy-2-(2-morpholin-4-yl-2-oxo-ethoxy)-phenyl]-ethanone]	< 1000
COc1ccc(C(=O)Cc2c(Cl)cncc2Cl)c(OCC(=O)Nc2ccccc2)c1OC [Compound 205, 2-{6-[2-(3,5-Dichloro-pyridin-4-yl)-acetyl]-2,3-dimethoxy-phenoxy}-N-phenyl-acetamide]	< 1000
COc1ccc(C(=O)Cc2c(Cl)cncc2Cl)c(OCC(=O)N(C)c2ccccc2)c1OC [Compound 206, 2-{6-[2-(3,5-Dichloro-pyridin-4-yl)-acetyl]-2,3-dimethoxy-phenoxy}-N-methyl-N-phenyl-acetamide]	< 1000
CCCNC(=O)COc1c(C(=O)Cc2c(Cl)cncc2Cl)ccc(OC)c1OC [Compound 208, 2-{6-[2-(3,5-Dichloro-pyridin-4-yl)-acetyl]-2,3-dimethoxy-phenoxy}-N-propyl-acetamide]	< 1000
COc1ccc(C(=O)Cc2c(Cl)cncc2Cl)c(OCC(=O)NC(C)C)c1OC [Compound 209, 2-{6-[2-(3,5-Dichloro-pyridin-4-yl)-acetyl]-2,3-dimethoxy-phenoxy}-N-isopropyl-acetamide]	< 1000
CCCCNC(=O)COc1c(C(=O)Cc2c(Cl)cncc2Cl)ccc(OC)c1OC [Compound 210, N-Butyl-2-{6-[2-(3,5-dichloro-pyridin-4-yl)-acetyl]-2,3-dimethoxy-phenoxy}-acetamide]	< 1000
